Test results reported in patent publication US20170332666A1, “APPLICATION OF P-METHYL BENZOIC ACID OR SALTS THEREOF AS ADDITIVES FOR ANIMAL FEED” (priority 2015, published 2017).
Several values for one entry are separate records, joined by “and”; a condition that tells them apart may be missing. Equal entries are not always repeated.

Tests used:
[1] = tested on: weaned pigs; test: Growth promotion test of weaned pigs with additives in creep feed; format: in vivo, pig (Duroc×Landrace×Large White piglets); conditions: for Average daily weight gain / Diarrhea rate / Feed conversion ratio: 10 days
Text: 140 weaned Duroc×Landrace×Large White piglets aged 28 days with similar body weight and further having an average body weight of 7.61 kg were divided into 14 groups, each with 10 pigs. After adding different concentrations of p-methyl benzoic acid or its calcium, sodium, potassium or zinc salt prepared by the embodiments disclosed herein into the conventional creep feed (excluding acidifying agent) of each group, the pigs were free feeding and drinking during the test period of 10 days, then to collect statistics of the weight gain and the feed conversion ratio as well as the diarrhea rate of test pig in each test group.

[2] = tested on: meat-type ducks; test: Feeding test of meat-type ducks with additives in basic diet; format: in vivo, Cherry Valley ducks; conditions: for Average daily weight gain / Average feed conversion ratio / Survival rate: 2000 ppm in basic diet, 30 days
Text: 300 Cherry Valley ducks aged 1 day were divided into 6 groups with 50 ducks per group. After adding different concentrations of p-methyl benzoic acid or benzoic acid into the same basic diet (without antibiotics) of each group, the Cherry Valley ducks were free feeding and drinking, and continued feeding for 30 days, then to collect statistics of the production performance and the survival rate of test ducks, the test grouping and metered concentrations are shown in Table 3, and the results of the production performance are shown in Table 4.

[3] = tested on: grass carps; test: Growth promotion test in grass carps with additives in feed; format: in vivo, grass carp; conditions: for Feed conversion ratio (FCR) / Final weight / Survival rate SR / Weight gain rate: 3000 ppm in feed, 8 weeks
Experimental: The test was performed on an aquaculture farm of Guangzhou Insighter Biotechnology CO., LTD, and the test fish is grass carp. Healthy and lively grass carps with the same species and sizes were fed in a large cage for 4 weeks, thereafter used for formal test, and the test system is a small floating cage. The small floating cage and temporary cages were placed in a 3500 square meter pond of the test field. Water depth of the pond was close to 1.5m, and the pond water is fully aerated. When testing, 160 grass carps starved for 1 day were randomly divided into 4 groups, each group with 4 replicates, and each replicate with 10 fish. After the whole weighing, the samples were randomly placed in 16 cages and fed with different test diets. The test diets were self-formulated in accordance with Table 5, and the basic diets of different test groups were adding different growth promoters respectively. The test adopted artificial feeding with food restriction, and the feed intake was adjusted once a week, the feeding levels of two groups were completely consistent (metered by the initial weight), the fish in each group is fed two times in one day (7:30 and 15:00). The test lasted for 8 weeks.

[4] = tested on: broilers; test: Growth promotion test of broilers with acidifying agents in complete formula feed; format: in vivo, broilers (chicken); conditions: for Effect on daily gain (in words) / Effect on feed conversion ratio (in words): 2000 ppm; for Average daily weight gain / Feed conversion ratio: 2000 ppm in complete formula feed, 21 days
Experimental: 300 broilers (female seedlings) aged 1 day were divided into 6 groups in accordance with Table 6, and each group with 50 broilers. Acidifying agent with different type or concentration was added to the complete formula feed for chickens without any acidifying agents in each group, the broilers were free feeding and drinking during the test period of 21 days and then to collect statistics of the weight gain and the feed conversion ratio of test broiler in each test group.

In the case of `O=C(O)c1ccccc1` [benzoic acid], the “Average daily weight gain” value ([1]; 2000 ppm in creep feed) is reported as 192.3 g and 193.5 g, the Diarrhea rate ([1]; 2000 ppm in creep feed) is reported as 22.0% and 23.0% and the Feed conversion ratio ([1]; 2000 ppm in creep feed) is reported as 1.66 and 1.65. For the same molecule, the “Rate of anti-diarrhea as compared to phosphoric acid or citric acid (in words)” value ([1]; equal concentration (2000 ppm)) was “increased slightly”, the “Average daily weight gain” value [2] was 59.7 and the “Average feed conversion ratio” value [2] was 2.10. The Survival rate [2] was 92%, the “Feed conversion ratio (FCR)” value [3] was 1.46 and the Final weight [3] was 585 g. The “Survival rate SR” value [3] was 100% and the Weight gain rate [3] was 147%.
`Cc1ccc(C(=O)[O-])cc1.Cc1ccc(C(=O)[O-])cc1.[Ca+2]` [calcium p-methyl benzoate] was tested, and the “Effect on diarrhea rate of test pigs (in words)” value (“Effect on diarrhea rate” below) ([1]; 2000 ppm) was “significantly reduce the diarrhea rate”, the “Improvement of production performance (in words)” value (from here on “Improvement”) ([1]; 2000 ppm) was “significant dose effect” and the “Average daily weight gain” value ([1]; 2000 ppm in creep feed) was 203.6 g. The Diarrhea rate ([1]; 2000 ppm in creep feed) was 12.0%, the Feed conversion ratio ([1]; 2000 ppm in creep feed) was 1.54 and the “Effect on diarrhea rate” value ([1]; 10000 ppm to 20000 ppm) was “significantly reduce the diarrhea rate”. The “Improvement” value ([1]; 10000 ppm to 20000 ppm) was “significant dose effect”, the “Growth promotion versus blank control group (in words)” value [3] was “obvious effects on growth promotion” and the “Feed conversion ratio (FCR)” value [3] was 1.40. For the same molecule, the Final weight [3] was 612 g, the “Survival rate SR” value [3] was 100% and the Weight gain rate [3] was 157%.
With `O=C(O)CC(O)(CC(=O)O)C(=O)O` [citric acid, reference compound] the “Effect on daily gain (in words)” value [4] was “no such effects”, the “Effect on feed conversion ratio (in words)” value [4] was “no such effects” and the “Average daily weight gain” value [4] was 19.8 g. The Feed conversion ratio [4] was 1.88, the “Effect on diarrhea rate” value ([1]; 2000 ppm) was “no such effects” and the “Improvement” value ([1]; 2000 ppm) was “no such effects”. The “Average daily weight gain” value ([1]; 2000 ppm in creep feed) was 181.3 g and 180.4 g, the Diarrhea rate ([1]; 2000 ppm in creep feed) was 31.0% and 26.0% and the Feed conversion ratio ([1]; 2000 ppm in creep feed) was 1.67 and 1.68. The “Feed conversion ratio (FCR)” value [3] was 1.47, the Final weight [3] was 582 g and the “Survival rate SR” value [3] was 100%. It also gave a Weight gain rate [3] of 147%.
In the case of `O=CO` [formic acid, reference compound], the “Average daily weight gain” value ([1]; 2000 ppm in creep feed) is reported as 173.4 g, the Diarrhea rate ([1]; 2000 ppm in creep feed) is reported as 25.0% and the Feed conversion ratio ([1]; 2000 ppm in creep feed) is reported as 1.65. For the same molecule, the “Average daily weight gain” value [2] was 58.6, the “Average feed conversion ratio” value [2] was 2.11 and the Survival rate [2] was 93%.
For `Cc1ccc(C(=O)O)cc1` [p-methyl benzoic acid], the “Average daily weight gain” value [4] was 24.5 g, the Feed conversion ratio [4] was 1.76 and the “Effect on diarrhea rate” value ([1]; 2000 ppm) was “significantly reduce the diarrhea rate”. For the same molecule, the “Improvement” value ([1]; 2000 ppm) was “significant dose effect”, the “Average daily weight gain” value ([1]; 10000 ppm in creep feed) was 215.8 g and the Diarrhea rate ([1]; 10000 ppm in creep feed) was 11.0%. For the same molecule, the Feed conversion ratio ([1]; 10000 ppm in creep feed) was 1.51, the “Effect on diarrhea rate” value ([1]; 10000 ppm to 20000 ppm) was “significantly reduce the diarrhea rate” and the “Improvement” value ([1]; 10000 ppm to 20000 ppm) was “significant dose effect”. For the same molecule, the “Average daily weight gain” value ([1]; 20000 ppm in creep feed) was 221.4 g, the Diarrhea rate ([1]; 20000 ppm in creep feed) was 9.0% and the Feed conversion ratio ([1]; 20000 ppm in creep feed) was 1.47. The “Production performance and survival rate (in words)” value [2] was “greatly improved” and the Survival rate [2] was 100%.
With `O=P(O)(O)O` [phosphoric acid, reference compound] the “Effect on diarrhea rate” value ([1]; 2000 ppm) was “no such effects”, the “Improvement” value ([1]; 2000 ppm) was “no such effects” and the “Average daily weight gain” value ([1]; 2000 ppm in creep feed) was 175.3 g. The Diarrhea rate ([1]; 2000 ppm in creep feed) was 27.0% and the Feed conversion ratio ([1]; 2000 ppm in creep feed) was 1.66.
`Cc1ccc(C(=O)[O-])cc1.[K+]` [potassium p-methyl benzoate] was tested, and the “Average daily weight gain” value ([1]; 2000 ppm in creep feed) was 205.8 g, the Diarrhea rate ([1]; 2000 ppm in creep feed) was 15.0% and the Feed conversion ratio ([1]; 2000 ppm in creep feed) was 1.58. For the same molecule, the “Effect on diarrhea rate” value ([1]; 10000 ppm to 20000 ppm) was “significantly reduce the diarrhea rate” and the “Improvement” value ([1]; 10000 ppm to 20000 ppm) was “significant dose effect”.
`Cc1ccc(C(=O)[O-])cc1.[Na+]` [sodium p-methyl benzoate] was tested, and the “Effect on daily gain (in words)” value [4] was “significantly increase the daily gain”, the “Effect on feed conversion ratio (in words)” value [4] was “improve the feed conversion ratio” and the “Average daily weight gain” value [4] was 24.3 g. The Feed conversion ratio [4] was 1.79, the “Average daily weight gain” value ([1]; 2000 ppm in creep feed) was 203.7 g and the Diarrhea rate ([1]; 2000 ppm in creep feed) was 17.0%. The Feed conversion ratio ([1]; 2000 ppm in creep feed) was 1.55, the “Effect on diarrhea rate” value ([1]; 10000 ppm to 20000 ppm) was “significantly reduce the diarrhea rate” and the “Improvement” value ([1]; 10000 ppm to 20000 ppm) was “significant dose effect”.
With `C/C=C/C=C/C(=O)O` [sorbic acid] the “Effect on daily gain (in words)” value [4] was “no such effects”, the “Effect on feed conversion ratio (in words)” value [4] was “no such effects” and the “Average daily weight gain” value [4] was 19.9 g. The Feed conversion ratio [4] was 1.89.
With `Cc1ccc(C(=O)[O-])cc1.Cc1ccc(C(=O)[O-])cc1.[Zn+2]` [zinc p-methyl benzoate] the “Average daily weight gain” value ([1]; 2000 ppm in creep feed) was 201.3 g, the Diarrhea rate ([1]; 2000 ppm in creep feed) was 15.0% and the Feed conversion ratio ([1]; 2000 ppm in creep feed) was 1.60.
